Reference: patent US20140106967A1, “AUXIN PLANT GROWTH REGULATORS” (The Governors of The University of Alberta, priority 2011, published 2014)

Test system: pea plants cv. 'Carneval'
Assay: Growth chamber experiment 2, pea 'Carneval' sprayed with 4-ME-IAA: peduncle/pedicel growth and seed yield, with or without heat stress (Tables P3-P12)
Format: in vivo, Pisum sativum L.
Experimental: For growth chamber experiment, seeds of ‘Carneval’ were planted at an approximate depth of 2.5 cm in 3-L plastic pots (4 seeds per pot and thinned to 2 plants per pot after approximately 2 weeks) in 1:1 Sunshine #4 potting mix (Sun Gro Horticulture, Vancouver, Canada) and sand. The experiment was arranged in a completely randomized design and grown at the University of Alberta in a growth chamber set at 19° C./17° C. (day/night) with a 16/8-h photoperiod under cool-white fluorescent lights (54W/835/HO high fluorescent bulbs, Phillips, Holland; 350 μE m^2 s^−2). For the heat stress treatment, plants were placed in a separate growth chamber with a 16/8-h photoperiod under cool-white fluorescent lights (F54/15/835/HO high fluorescent bulbs, Phillips, Holland) for 4 days where the temperature was cycled over a 24 hr period as follows: 33° C. air temperature for 6 hours per day (between 11:00 and 17:00 hrs) for 4 days during the light cycle; the remainder of the light cycle was maintained at a 22° C. air temperature; the dark cycle was maintained at 19° C. After the 4 day heat treatment, the plants were returned to the same growth chamber they were originally grown in, where they were taken to maturity.
For experiment 2, aqueous 4-methyl-indole-3-acetic acid (4-ME-IAA) solutions at 1×10^−7, 1×10^−6, 1×10^−5, or 1×10^−4 M in 0.1% (v/v) Tween 80 or aqueous 0.1% (v/v) Tween 80 (control) were applied as a spray to the entire plant to cover when the first flowering node of the main stem was near or at anthesis. In addition to the application at the timing cited above, one application of 4-ME-IAA at 1×10^−6 M or 1×10^−5 M was made when the floral buds were tightly clustered inside the stipule leaves at the stem apex (floral buds not visible outside of stipule leaves; designated the ‘Early’ treatment). In the heat stress treatment, the hormone or control treatment application was completed 16 hrs prior to the initiation of the first heat-stress cycle. The length and diameter (measured mid-length) of the lower and upper peduncles and pedicels of the inflorescence with two pods (or the lower peduncle and pedicel if a single pod node) at the first, second, third and fourth flowering nodes of the main stem of pea plants were determined for hormone-treated and control plants. Standard error of the mean (SE) was calculated for the means of all data for a measure of statistical significance in comparing treatment means.

[1] = 1×10^−5 M, applied near or at anthesis, no heat stress
[2] = 1×10^−5 M, first flowering node, heat stress (33° C. 6 h/day, 4 days)
[3] = 1×10^−5 M, first flowering node, no heat stress
[4] = 1×10^−5 M, fourth flowering node, heat stress (33° C. 6 h/day, 4 days)
[5] = 1×10^−5 M, fourth flowering node, no heat stress
[6] = 1×10^−5 M, heat stress (33° C. 6 h/day, 4 days)
[7] = 1×10^−5 M, second flowering node, heat stress (33° C. 6 h/day, 4 days)
[8] = 1×10^−5 M, second flowering node, no heat stress
[9] = 1×10^−5 M, third flowering node, heat stress (33° C. 6 h/day, 4 days)
[10] = 1×10^−5 M, third flowering node, no heat stress
[11] = 1×10^−6 M, applied near or at anthesis, no heat stress
[12] = 1×10^−6 M, first flowering node, heat stress (33° C. 6 h/day, 4 days)

Cc1cccc2[nH]cc(CC(=O)O)c12 [4-ME-IAA, 4-methyl-indole-3-acetic acid]
Seed weight per plant [1]: 14.0 ± 0.9 g
Weight per seed [1]: 0.230 ± 0.004 g
increase in seed yield (seed weight per plant) vs control [1]: 61%
Lower Pedicel Length [2]: 9.11 ± 0.26 mm
Lower Pedicel diameter [2]: 1.59 ± 0.06 mm
Lower Peduncle Length [2]: 61.33 ± 4.13 mm
Lower Peduncle diameter [2]: 1.60 ± 0.08 mm
Upper Pedicel Length [2]: 8.83 ± 0.17 mm
Upper Pedicel diameter [2]: 1.56 ± 0.08 mm
Upper Peduncle Length [2]: 16.00 ± 1.46 mm
Upper Peduncle diameter [2]: 1.33 ± 0.04 mm
Lower Pedicel Length [3]: 8.70 ± 0.45 mm
Lower Pedicel diameter [3]: 1.58 ± 0.04 mm
Lower Peduncle Length [3]: 63.10 ± 4.95 mm
Lower Peduncle diameter [3]: 1.53 ± 0.05 mm
Upper Pedicel Length [3]: 8.70 ± 0.37 mm
Upper Pedicel diameter [3]: 1.49 ± 0.03 mm
Upper Peduncle Length [3]: 19.90 ± 1.12 mm
Upper Peduncle diameter [3]: 1.31 ± 0.03 mm
Lower Pedicel Length [4]: 7.17 ± 0.48 mm
Lower Pedicel diameter [4]: 1.41 ± 0.07 mm
Lower Peduncle Length [4]: 29.50 ± 2.63 mm
Lower Peduncle diameter [4]: 1.39 ± 0.02 mm
Lower Pedicel Length [5]: 9.00 ± 0.44 mm
Lower Pedicel diameter [5]: 1.22 ± 0.09 mm
Lower Peduncle Length [5]: 40.22 ± 3.64 mm
Lower Peduncle diameter [5]: 1.41 ± 0.05 mm
Upper Pedicel Length [5]: 8.88 ± 0.44 mm
Upper Pedicel diameter [5]: 1.11 ± 0.10 mm
Upper Peduncle Length [5]: 18.13 ± 0.88 mm
Upper Peduncle diameter [5]: 1.03 ± 0.08 mm
Ratio of seed number on main stem to lateral stems [6]: 1.1 ± 0.1
Seed number plant [6]: 50.6 ± 5.0
Seed weight per per plant [6]: 13.7 ± 1.2 g
Weight per seed [6]: 0.274 ± 0.005 g
Lower Pedicel Length [7]: 8.11 ± 0.11 mm
Lower Pedicel diameter [7]: 1.68 ± 0.07 mm
Lower Peduncle Length [7]: 47.11 ± 5.35 mm
Lower Peduncle diameter [7]: 1.58 ± 0.05 mm
Upper Pedicel Length [7]: 8.00 ± 0.29 mm
Upper Pedicel diameter [7]: 1.55 ± 0.06 mm
Upper Peduncle Length [7]: 16.33 ± 0.82 mm
Upper Peduncle diameter [7]: 1.32 ± 0.04 mm
Lower Pedicel Length [8]: 8.80 ± 0.33 mm
Lower Pedicel diameter [8]: 1.50 ± 0.04 mm
Lower Peduncle Length [8]: 53.50 ± 5.01 mm
Lower Peduncle diameter [8]: 1.45 ± 0.04 mm
Upper Pedicel Length [8]: 8.60 ± 0.37 mm
Upper Pedicel diameter [8]: 1.39 ± 0.04 mm
Upper Peduncle Length [8]: 18.10 ± 0.74 mm
Upper Peduncle diameter [8]: 1.16 ± 0.03 mm
Lower Pedicel Length [9]: 7.67 ± 0.37 mm
Lower Pedicel diameter [9]: 1.58 ± 0.06 mm
Lower Peduncle Length [9]: 39.22 ± 3.35 mm
Lower Peduncle diameter [9]: 1.52 ± 0.05 mm
Upper Pedicel Length [9]: 7.00 ± 0.32 mm
Upper Pedicel diameter [9]: 1.56 ± 0.08 mm
Upper Peduncle Length [9]: 16.20 ± 1.74 mm
Upper Peduncle diameter [9]: 1.38 ± 0.09 mm
Lower Pedicel Length [10]: 8.56 ± 0.41 mm
Lower Pedicel diameter [10]: 1.35 ± 0.04 mm
Lower Peduncle Length [10]: 47.11 ± 4.73 mm
Lower Peduncle diameter [10]: 1.53 ± 0.03 mm
Upper Pedicel Length [10]: 8.67 ± 0.29 mm
Upper Pedicel diameter [10]: 1.25 ± 0.05 mm
Upper Peduncle Length [10]: 20.44 ± 1.00 mm
Upper Peduncle diameter [10]: 1.13 ± 0.05 mm
Ratio of seed number on main stem to lateral stems [11]: 2.9 ± 0.6
Seed number per plant [11]: 63.3 ± 4.6
Seed weight per plant [11]: 14.9 ± 0.9 g
Weight per seed [11]: 0.238 ± 0.006 g
increase in seed yield (seed weight per plant) vs control [11]: 71%
Lower Pedicel Length [12]: 8.80 ± 0.29 mm
Lower Pedicel diameter [12]: 1.47 ± 0.05 mm
Lower Peduncle Length [12]: 60.40 ± 5.23 mm
